Experimental data: US20250255845A1, “USE OF INTERLEUKIN (IL)-17A INHIBITOR IN PREPARATION OF MEDICAMENT FOR TREATING INFLAMMATORY DISEASE” (Xiangnan University, priority 2024, published 2025)

Key:
Format in all cases: cell-based, mouse
[1] = tested on: IL-6; experiment: ELISA of LPS-induced IL-6 secretion in RAW264.7 cells
Description: (§1) RAW264.7 cell culture: mouse mononuclear macrophages (RAW264.7, ATCC) are cultured in a complete medium containing 10% fetal bovine serum (FBS), 1% double antibodies (penicillin and streptomycin), and 89% DMEM at 37° C. and 5% CO2. In this experiment, RAW264.7 cells from passages 3 to 8 are used for related test.
(§2) LPS (100 ng/ml) is added for stimulation, with or without Tan, and the cell supernatant is collected to detect the contents of NO, IL-23, IL-17A, TNF-α, and IL-6 in the cell supernatant. The cell lysate is collected and the protein expressions (STAT3, p-STAT3 (Ser727), and p-STAT3 (Tyr705)) are detected by Western blot. Total cell RNA is extracted and real-time fluorescence quantitative polymerase chain reaction (PCR) is conducted to detect the expression levels of IL-23, IL-17A, TNF-α, and IL-6 mRNA.
(§3) RAW264.7 cells in the logarithmic growth phase were inoculated into a 6-well plate and the cell density was adjusted to 5.0×10^5 cells/well. After culturing for 24 h, the cells were stably adhered to the plate. The original medium was removed and different concentrations (5, 10, 20, 40 μM) of Tan were added to allow pretreatment for 1 h. […] The OD450 nm value of the cell supernatant was detected according to the instructions of the TNF-α and IL-6 ELISA kits, and the content of pro-inflammatory factors (TNF-α and IL-6) in the cell supernatant was calculated.

[2] = tested on: TNF-α; experiment: ELISA of LPS-induced TNF-α secretion in RAW264.7 cells
Description: as §1, §2, §3

[3] = tested on: TNF-α mRNA; experiment: Real-time fluorescence quantitative PCR, LPS-induced TNF-α mRNA in RAW264.7 cells
Description: as §1, §2
(§4) RAW264.7 cells were inoculated into 6-well plate and the cell density was adjusted to 5.0×10^6 cells/well. […] The fluorescence intensity of each sample was detected according to the instructions of the real-time fluorescence quantitative PCR kit and specific primers (Table 1) (cycle conditions: enzyme activation 95° C. for 3 min, 1 cycle; denaturation 95° C. for 15 s, annealing/extension 60° C. for 1 min, 40 cycles). The mRNA expression level of each group was normalized with the GAPDH expression level, and the relative expression of mRNA was calculated using the 2^−ΔΔCt method.

[4] = tested on: IL-17A mRNA; experiment: Real-time fluorescence quantitative PCR, LPS-induced IL-17A mRNA in RAW264.7 cells
Description: as §1, §2
RAW264.7 cells were inoculated into 6-well plate and the cell density was adjusted to 5.0×10^6 cells/well. After cultured for 24 h, the cells were stably adhered to the wall. The original medium was removed and different concentrations (5, 10, 20, 40 μM) of Tan were added to allow pretreatment for 1 h. LPS (100 ng/mL) was added and continued to be incubated for 24 h. The commercial TRlcom lysis buffer provided by Jianshi Biotech was added to extract total RNA from cells using the centrifugal column method and immediately reverse transcribed into c-DNA. The fluorescence intensity of each sample was detected according to the instructions of the real-time fluorescence quantitative PCR kit and specific primers (Table 1) (cycle conditions: enzyme activation 95° C. for 3 min, 1 cycle; denaturation 95° C. for 15 s, annealing/extension 60° C. for 1 min, 40 cycles). The mRNA expression level of each group was normalized with the GAPDH expression level, and the relative expression of mRNA was calculated using the 2^−ΔΔCt method.

[5] = tested on: IL-23 mRNA; experiment: Real-time fluorescence quantitative PCR, LPS-induced IL-23 mRNA in RAW264.7 cells
Description: as §1, §2, §4

[6] = tested on: IL-6 mRNA; experiment: Real-time fluorescence quantitative PCR, LPS-induced IL-6 mRNA in RAW264.7 cells
Description: as §1, §2, §4

[7] = tested on: p-STAT3 (Tyr 705); experiment: Western blot of p-STAT3 (Tyr 705) in LPS-induced RAW264.7 cells
Description: as §1, §2
(§5) RAW264.7 cells in the logarithmic growth phase were inoculated in 100 mm culture dishes, and the cell density was adjusted to 1.6×10^6 cells/dish. […] The supernatant was collected by centrifugation at 4° C., 12,000 rpm for 5 min, and the protein concentration was determined by BCA method. […] Enhanced Chemiluminescence (ECL) color development was used for detection, and protein band quantification was performed using Image J software.

[8] = tested on: STAT3; experiment: Western blot of STAT3 in LPS-induced RAW264.7 cells; conditions: 5-40 μM, among treatment groups; P>0.05
Description: as §1, §2, §5

[9] = tested on: p-STAT3 (Ser 727); experiment: Western blot of p-STAT3 (Ser 727) in LPS-induced RAW264.7 cells
Description: as §1, §2
RAW264.7 cells in the logarithmic growth phase were inoculated in 100 mm culture dishes, and the cell density was adjusted to 1.6×10^6 cells/dish. After cultured for 24 h, different concentrations (5, 10, 20, 40 μM) of Tan were added to allow pretreatment for 2 h, and LPS (100 ng/ml) was added to allow incubation for 24 h. The original medium was removed, and the cells were washed 2 times with pre-cooled PBS buffer. Then, protein lysis buffer (300 μL per dish) was added for lysis on ice for 30 min. The supernatant was collected by centrifugation at 4° C., 12,000 rpm for 5 min, and the protein concentration was determined by BCA method. Next, 60 μg of total protein sample was loaded, separated by 10% Sodium Dodecyl Sulfate Polyacrylamide Gel Electrophoresis (SDS-PAGE) gel, and transferred to Polyvinylidene Fluoride (PVDF) membrane by electrophoresis. The membrane was blocked with 5% skim milk at room temperature for 1 h, and 3 mL of GAPDH, STAT3, p-STAT3 (Ser727), and p-STAT3 (Tyr705) antibodies were added and incubated overnight at 4°° C. […] Enhanced Chemiluminescence (ECL) color development was used for detection, and protein band quantification was performed using Image J software.

[10] = 5-40 μM, 24 h, vs LPS group, P<0.001, dose-dependent
[11] = 5-40 μM, 24 h, vs LPS, P<0.001, dose-dependent
[12] = 5-40 μM, vs LPS group, P<0.001, dose-dependent

Compound: COc1ccc(-c2cc(=O)c3c(OC)c(OC)c(OC)c(OC)c3o2)cc1 [Tan, tangeretin]
- inhibitory effect on IL-6 secretion compared with positive control Clo ([1]; 40 μM): comparable to that of the positive control
- IL-6 level in the cell supernatant [1, 10]: significantly decreased
- inhibitory effect on TNF-α secretion compared with positive control Clo ([2]; 40 μM): comparable to that of the positive control
- TNF-α level in the cell supernatant [2, 10]: significantly decreased
- inhibitory effect on TNF-α mRNA compared with positive control Clo ([3]; 40 μM): comparable to that of the positive control Clo
- relative expression level of TNF-α mRNA [3, 11]: significantly decreased
- inhibitory effect on IL-17A (FIG. 5B) [4]: strong inhibitory effect
- inhibitory effect on IL-17A mRNA compared with positive control Clo ([4]; 40 μM): comparable to that of the positive control Clo
- relative expression level of IL-17A mRNA [4, 11]: significantly decreased
- inhibitory effect on IL-23 mRNA compared with positive control Clo ([5]; 40 μM): comparable to that of the positive control Clo
- relative expression level of IL-23 mRNA [5, 11]: significantly decreased
- inhibitory effect on IL-6 mRNA compared with positive control Clo ([6]; 40 μM): comparable to that of the positive control Clo
- relative expression level of IL-6 mRNA [6, 11]: significantly decreased
- suppression of STAT3 phosphorylation (Tyr 705) compared with positive control Clo ([7]; 40 μM): comparable efficacy to the positive control
- expression of p-STAT3 (Tyr 705) protein [7, 12]: inhibited
- STAT3 protein expression [8]: no statistically significant change
- suppression of p-STAT3 (Ser 727) relative to p-STAT3 (Tyr 705) [9]: more pronounced suppression
- suppression of STAT3 phosphorylation (Ser 727) compared with positive control Clo ([9]; 40 μM): comparable efficacy to the positive control
- expression of p-STAT3 (Ser 727) protein [9, 12]: inhibited
